Reference: patent US20230256094A1, “CANCER RADIOSENSITIZATION BY IN SITU FORMATION OF GOLD NANOPARTICLES AND/OR GOLD NANOCLUSTERS” (BOARD OF REGENTS, THE UNIVERSITY OF TEXAS SYSTEM, priority 2020, published 2023)

Assays:
[1] = tested on: cancerous (Mia-PaCa-2 and PANC1) vs normal (HPDE) pancreatic cells; assay: Fluorescent confocal microscopy of GNC biosynthesis, cancerous vs normal cells; format: cell-based; details: 1.00 mM, 24 hr (FIG. 8B)
Description: Hoechst nuclear stain is the only imaging source in the untreated column and the primary imaging source in the albumin-GNC column and the non-cancer Au^3+ panel. Cells are live during imaging. Scale bars are 10 μm.
FIG. 8B quantifies GNC channel pixel intensity of the samples in each of the rows of FIG. 8A.
2.2. Comparisons of efficiency of the GNC in situ synthesis by cancer and normal cells. We compared GNC biosynthesis between normal (HPDE) and cancerous (Mia-PaCa-2 and PANC1) pancreatic cells using fluorescent confocal microscopy (FIG. 8A). In addition, we compared the efficiency of the intracellular synthesis with extracellular uptake of prefabricated albumin coated GNCs (FIG. 8A). […] Further, there was 12.20- and 7.69-times greater fluorescence due to in situ synthesis relative to cellular uptake of prefabricated GNCs in PANC1 and Mia-PaCa-2 cells, respectively (FIG. 8B).

[2] = tested on: pancreatic noncancerous cells (HPDE); assay: Confocal fluorescence imaging of in situ GNC synthesis; format: cell-based; details: 1 mM, 24 hours, 561 nm excitation, 610 nm emission
Description: FIG. 4 presents fluorescence confocal images of non-cancerous (HPDE) and cancerous (MIAPaCa2) pancreatic cells treated with either 1 mM of Au^3+ gold ions or premade albumin-GNCs at 1 mM Au^0 for 24 hours. (From left to right) Cells: untreated; treated with albumin-GNCs; treated with Au^3+ gold ions. […] The strong red fluorescence in cancer cells indicated intracellular synthesis of GNCs from gold ions. Scale bars are 25 μm.
We compared in situ synthesis of GNCs by pancreatic cancer cells (MIAPACA2) and pancreatic noncancerous cells (HPDE) (FIG. 4). Confocal fluorescence images were obtained using a Leica TCS SP8 confocal microscope with 561 nm excitation and 610 nm emission optimized for detection of GNCs.

thyroid cancer = assay: gamma H2AX foci after x-ray irradiation, thyroid cancer; format: cell-based; details: 24 hours after x-ray irradiation, 0 or 8 Gy, 0.20 mM
Description: Treatments are in full cell media.

PANC1 pancreatic cancer = assay: TBARS assay of peroxidation product formation; format: cell-based, human; details: 24 hr post irradiation
Description: FIG. 25 reports on a mechanistic study of radiosensitization quantifying the ratio of peroxidation product formation resulting from X-ray damage through TBARS assay, resulting from 24 hour, 0.20 mM Au^3+ treatments (right) compared against non-treated (left) combined with either 0 Gy or 8 Gy x-ray irradiation. Treatments are in full cell media to PANC1 pancreatic cancer.
Further, we characterized the mechanisms of radiosensitization through (i) quantification of double stranded DNA breaks via y-H2AX Foci (FIG. 21), (ii) mitochondrial polarization via JC-1 assay (FIG. 22), (iii) NADP total (FIG. 23) and NADP:NADPH ratio (FIG. 24) via NADP(H) assay, and (iv) peroxidation production via TBARS assay (FIG. 25).

[3] = tested on: pancreatic non-cancerous cells (MS1); assay: Clonogenic assay after X-ray irradiation; format: cell-based; details: 0.1 mM, 24 hours, X-rays 0 to 8 Gy
Description: (§1) Radiosensitization due to intracellular GNC formation (i.e., delivery of Au^3+) was compared between cancerous and non-cancerous cells using a standard clonal assay. For radiosensitization, cells were incubated with 0.1 mM of buffered chloroauric acid in cell culture media for 24 hours. Then, the cells were lifted and plated in 30 mm culture dishes at optimized cell densities for observation of colony formation following irradiation with X-rays at dosages ranging from 0 to 8 Gy (XRAD SmART). […] The radiosensitization results correlated well with the fluorescence images showing greater production of GNCs by cancerous cells (FIG. 6A-6B). For LTPA pancreatic cancer cells the surviving fraction values decreased by a factor of 2.3x and 3.5x for radiation of 4 Gy and 6 Gy, respectively, in cells treated with gold atoms compared to untreated control (FIG. 6B). This relative decrease in surviving fraction is similar or better than previously reported values observed in cells treated with pre-synthetized GNPs. We believe that the observed improvement in radiation efficiency in killing cancer cells might be associated with a strong nuclear localization of in situ synthetized GNCs.

[4] = tested on: LTPA pancreatic cancer cells; assay: Clonogenic assay after X-ray irradiation; format: cell-based; details: 0.1 mM, 24 hours; for radiosensitization effect as compared to untreated control: cancer cells, X-rays 0 to 8 Gy
Description: as §1

[5] = tested on: 3T3 mouse fibroblast cells; assay: MTS assay of radiosensitization after X-ray irradiation; format: cell-based; details: 0 Gy
Description: (§2) Our initial evaluation of radiosensitization via intracellular GNP formation was performed with 3T3 mouse fibroblast cells. […] Radiosensitization with intracellular GNC formation (i.e., delivery of Au^3+) was compared with pre-fabricated albumin-coated GNCs (Albumin-GNC) prepared according to work by Xie^46 and control cells without treatment via MTS assay (FIG. 3B).
3T3 cells were first incubated with either 1 mM of sodium chloroaurate or albumin-GNCs (0.1 mM Au^0)in cell culture media for 10 hours. Then, the cells including the nontreated control were irradiated with X-rays at dosages of 0, 4 and 6 Gy in the X-ray X-RAD 225 CX irradiator system (Precision).
In our future studies we will use a standard clonogenic survival assay for quantitation of the radiosensitization effect.

NIH3T3 cells = assay: Confocal fluorescence imaging of intracellular GNC formation; format: cell-based, mouse; details: 1 mM in cell culture media, 24 hours; 561 nm excitation, 610 nm emission
Description: FIG. 3A presents fluorescence images of control NIH3T3 cells (left) and cells treated with Au^3+ (right). Both control and treated cells generated fluorescence with nuclear staining by Hoechst 33342. Fluorescent signal in the treated cells was associated with intracellular formation of gold nanoclusters (GNCs). Scale bars 20 μm.
as §2

PANC1 cells = assay: MTS viability assay; format: cell-based
Description: 2.4. Characterize cytotoxicity of gold atom treatment. An MTS viability assay was used with 0-2.0 mM Au^3+ dose range. […] MTS assay was not usable at concentrations >0.75 mM Au^3+ due to intracellular formation of larger GNPs and their absorbance interfering with the MTS results. Therefore, at higher Au^3+ we switched to AO/PI live-dead staining (FIG. 15) and JC-1 mitochondrial depolarization assays (FIG. 19). JC-1 assay indicated cell viability ˜80% for concentrations between 0.20-1.50 mM Au^3+.

[6] = listed as buffered chloroauric acid

[Au+3].[Cl-].[Cl-].[Cl-].[Cl-].[H+] [Au^3+, chloroauric acid]
greater fluorescence due to GNC biomineralization in cancerous cells than in non-cancerous HPDE [1]: ~2 fold | GNC fluorescence / GNC formation [2]: only sparsely seen | radiosensitization via induced double stranded DNA breaks (gamma H2AX foci) (thyroid cancer): evidence of radiosensitization via induced double stranded DNA breaks | increase in peroxidation product formation (PANC1 pancreatic cancer): ~2 x | radiosensitization in non-cancerous cells [3]: no radiosensitization | radiosensitization in non-cancerous cells [3, 6]: no significant radiosensitization | factor of decrease of surviving fraction compared to untreated control ([4]; 4 Gy): 2.3 x | factor of decrease of surviving fraction compared to untreated control ([4]; 6 Gy): 3.5 x | radiosensitization effect as compared to untreated control [4]: significant radiosensitization effect | radiosensitization effect as compared to untreated control [4, 6]: significantly greater radiosensitization effect | cell viability / cytotoxicity, treated vs untreated cells [5]: no difference in cell viability | cell viability / cytotoxicity, treated vs untreated cells ([5]; listed as chloroauric acid): not cytotoxic | intracellular formation of GNCs (confocal fluorescence) (NIH3T3 cells): uniform formation of GNCs | impact on viability (MTS) (PANC1 cells; 0.0-0.20 mM): no impacts on viability | cell viability (MTS) (PANC1 cells; 0.75 mM): ~81%
